Where “and” joins values, the source holds several entries; their conditions need not be identical. Equal values may be shown once.
Assay: molar heat capacity at constant pressure
Conditions: 101.33 kPa, Crystal 1

O=P([O-])([O-])[O-].[Cs+].[Mn+2] [cesium manganese(II) phosphate]
molar heat capacity at constant pressure
Conditions | Small sample (50 mg) DSC | Vacuum adiabatic calorimetry
240.73 K | – | 124.88 J/K/mol
243.23 K | – | 125.55 J/K/mol
245.29 K | – | 126.13 J/K/mol
247.36 K | – | 126.8 J/K/mol
250 K | – | 126.96 J/K/mol
250.13 K | – | 127.46 J/K/mol
252.55 K | – | 128.04 J/K/mol
255.37 K | – | 128.79 J/K/mol
258.11 K | – | 129.46 J/K/mol
260 K | – | 129.62 J/K/mol
260.99 K | – | 130.29 J/K/mol
263.88 K | – | 131.12 J/K/mol
266.76 K | – | 131.87 J/K/mol
269.64 K | – | 132.62 J/K/mol
270 K | – | 132.37 J/K/mol
272.52 K | – | 133.45 J/K/mol
275.39 K | – | 134.28 J/K/mol
278.26 K | – | 135.19 J/K/mol
280 K | – | 135.11 J/K/mol
281.34 K | – | 136.02 J/K/mol
283.99 K | – | 136.77 J/K/mol
286.86 K | – | 137.69 J/K/mol
289.06 K | – | 138.1 J/K/mol
290 K | – | 138.02 J/K/mol
291.64 K | – | 139.02 J/K/mol
295.04 K | – | 140.18 J/K/mol
297.8 K | – | 141.01 J/K/mol
298.15 K | – | 140.43 J/K/mol
300 K | – | 141.01 J/K/mol
300.2 K | – | 141.76 J/K/mol
302.7 K | – | 142.51 J/K/mol
305.33 K | – | 143.34 J/K/mol
308.4 K | – | 144.17 J/K/mol
310 K | – | 144.17 J/K/mol
310.94 K | – | 144.92 J/K/mol
314 K | – | 145.92 J/K/mol
317.6 K | – | 147 J/K/mol
320 K | – | 147.58 J/K/mol
320.46 K | – | 147.91 J/K/mol
323.3 K | – | 148.91 J/K/mol
326.66 K | – | 150.08 J/K/mol
329.3 K | – | 150.91 J/K/mol
330 K | – | 151.16 J/K/mol
330.7 K | 151.32 J/K/mol | –
331.64 K | – | 151.57 J/K/mol
332.7 K | 152.15 J/K/mol | –
333.9 K | 152.15 J/K/mol | –
335.3 K | – | 152.49 J/K/mol
337 K | 152.99 J/K/mol | –
338.7 K | – | 153.4 J/K/mol
340 K | 153.82 J/K/mol | 154.9 J/K/mol
341.6 K | 153.82 J/K/mol | –
343.13 K | – | 154.65 J/K/mol
345 K | 155.48 J/K/mol | –
347.5 K | 155.48 J/K/mol | –
350 K | 156.31 J/K/mol | –
352.5 K | 157.14 J/K/mol | –
355 K | 157.14 J/K/mol | –
357.7 K | 157.97 J/K/mol | –
360 K | 158.81 J/K/mol | –
360.2 K | 157.97 J/K/mol | –
362.5 K | 158.81 J/K/mol | –
364.9 K | 158.81 J/K/mol | –
367.5 K | 159.64 J/K/mol | –
370 K | 160.47 J/K/mol | –
372.5 K | 160.47 J/K/mol | –
374.8 K | 161.3 J/K/mol | –
377.3 K | 161.3 J/K/mol | –
380 K | 162.13 J/K/mol | –
382.2 K | 162.13 J/K/mol | –
385 K | 162.96 J/K/mol | –
387.5 K | 162.96 J/K/mol | –
390 K | 163.8 J/K/mol | –
392.5 K | 163.8 J/K/mol | –
395 K | 164.63 J/K/mol | –
397.5 K | 164.63 J/K/mol | –
400 K | 164.63 J/K/mol | –
400.3 K | 165.46 J/K/mol | –
402.8 K | 165.46 J/K/mol | –
405.3 K | 166.29 J/K/mol | –
407.5 K | 166.29 J/K/mol | –
409.5 K | 166.29 J/K/mol | –
410 K | 166.29 J/K/mol | –
412.6 K | 166.29 J/K/mol | –
415 K | 167.12 J/K/mol | –
417.5 K | 167.12 J/K/mol | –
420 K | 167.12 J/K/mol | –
422.5 K | 167.12 J/K/mol | –
425 K | 167.95 J/K/mol | –
427.5 K | 167.95 J/K/mol | –
430 K | 167.95 J/K/mol | –
432.5 K | 167.95 J/K/mol | –
435 K | 168.78 J/K/mol | –
437.5 K | 168.78 J/K/mol | –
440 K | 169.62 J/K/mol and 168.78 J/K/mol | –
442.5 K | 169.62 J/K/mol | –
445 K | 169.62 J/K/mol | –
447.5 K | 169.62 J/K/mol | –
450 K | 170.45 J/K/mol | –
452.5 K | 170.45 J/K/mol | –
455 K | 170.45 J/K/mol | –
457.5 K | 170.45 J/K/mol | –
460 K | 171.28 J/K/mol | –
462.5 K | 171.28 J/K/mol | –
465 K | 171.28 J/K/mol | –
467.5 K | 171.28 J/K/mol | –
469.9 K | 172.11 J/K/mol | –
470 K | 172.11 J/K/mol | –
472.5 K | 172.11 J/K/mol | –
475 K | 172.11 J/K/mol | –
477.5 K | 172.11 J/K/mol | –
480 K | 172.94 J/K/mol | –
482.5 K | 172.94 J/K/mol | –
485 K | 172.94 J/K/mol | –
487.5 K | 172.94 J/K/mol | –
490 K | 173.77 J/K/mol | –
492.5 K | 173.77 J/K/mol | –
495 K | 173.77 J/K/mol | –
497.5 K | 174.6 J/K/mol | –
500 K | 174.6 J/K/mol | –
502.5 K | 174.6 J/K/mol | –
505.3 K | 174.6 J/K/mol | –
507.5 K | 175.44 J/K/mol | –
510 K | 175.44 J/K/mol | –
512.5 K | 175.44 J/K/mol | –
515 K | 175.44 J/K/mol | –
517.5 K | 176.27 J/K/mol | –
520 K | 176.27 J/K/mol | –
522.5 K | 176.27 J/K/mol | –
525 K | 176.27 J/K/mol | –
527.5 K | 177.1 J/K/mol | –
530 K | 177.1 J/K/mol | –
532.5 K | 177.1 J/K/mol | –
535 K | 177.1 J/K/mol | –
537.5 K | 177.93 J/K/mol | –
540 K | 177.93 J/K/mol | –
542.5 K | 177.93 J/K/mol | –
545 K | 177.93 J/K/mol | –
547.5 K | 178.76 J/K/mol | –
550 K | 178.76 J/K/mol | –
552.5 K | 178.76 J/K/mol | –
555 K | 178.76 J/K/mol | –
557.5 K | 179.59 J/K/mol | –
560 K | 179.59 J/K/mol | –
562.5 K | 179.59 J/K/mol | –
565 K | 179.59 J/K/mol | –
567.5 K | 180.42 J/K/mol | –
570 K | 180.42 J/K/mol | –
572.5 K | 180.42 J/K/mol | –
575 K | 180.42 J/K/mol | –
577.5 K | 181.26 J/K/mol | –
580 K | 181.26 J/K/mol | –
582.5 K | 181.26 J/K/mol | –
585 K | 181.26 J/K/mol | –
587.5 K | 182.09 J/K/mol | –
590 K | 182.09 J/K/mol | –
592.5 K | 182.09 J/K/mol | –
595 K | 182.09 J/K/mol | –
597.5 K | 182.92 J/K/mol | –
600 K | 182.92 J/K/mol | –
602.5 K | 182.92 J/K/mol | –
605 K | 183.75 J/K/mol | –
607.5 K | 183.75 J/K/mol | –
610 K | 183.75 J/K/mol | –
612.5 K | 183.75 J/K/mol | –
615 K | 184.58 J/K/mol | –
617.5 K | 184.58 J/K/mol | –
620 K | 184.58 J/K/mol | –
622.4 K | 184.58 J/K/mol | –
625 K | 185.41 J/K/mol | –
627.5 K | 185.41 J/K/mol | –
630 K | 185.41 J/K/mol | –
632.5 K | 186.24 J/K/mol | –
635 K | 186.24 J/K/mol | –
637.5 K | 186.24 J/K/mol | –
640 K | 186.24 J/K/mol | –
642.5 K | 186.24 J/K/mol | –
645.1 K | 187.08 J/K/mol | –
647.5 K | 187.08 J/K/mol | –
650 K | 187.08 J/K/mol | –
